Source: EP4710949A1, “LYOPHILIZED PREPARATION, LYOPHILIZED SOLUTION, METHODS FOR PRODUCING SAME, AND LIQUID AGENT” (Goryo Chemical, Inc., priority 2023, dated 2024)
Values after ≈ are worked out from the molar mass of the structure shown. Values joined by “and” are separate entries in the source; they are usually repeats but may differ in a detail not shown here. Equal values may be shown once.

Legend:
[1] = Reconstitution of lyophilized preparation of Compound A in physiological saline (Test Example 8); assay type: physicochemical
Method: (§1) ·Column: Meteoric Core C8, 5 µm, 4.6 mm×150 mm (YMC Co., Ltd.) ·Column temperature: 25°C ·Feeding amount: 1.0 mL/min. ·Wavelength: 254 nm ·Mobile phase A: water/TFA (1,000:1), Mobile phase B: acetonitrile/TFA (1,000:1) ·Feeding of mobile phase Table 1
Physiological saline (physiological salt solution "OTSUKA NORMAL SALINE") was added to a lyophilized preparation produced according to the same formulation as the formulation 32 except the concentration of Compound A in the lyophilization solution, and the preparation was dissolved in the saline so that a liquid amount was 5 mL. Thus, a reconstituted solution (liquid preparation) of Compound A was obtained. The concentration of Compound A in the reconstituted solution was calculated by HPLC measurement, and the content of Compound A was calculated. […]

[2] = Dissolution test of Compound A (Test Example 1); assay type: physicochemical; settings: 0.03% ps20, pH 7; 0.03 wt% PS20 solution (phosphate buffer)
Method: as §1
1 Milligram of Compound A and 10 mL of a 6.55 mM phosphate buffer (pH: 7) containing 0 wt% to 0.03 wt% of polysorbate 20 (FUJIFILM Wako Pure Chemical Corporation, hereinafter referred to as "PS20") or an aqueous solution of NaH2PO4 (0.33 mg/mL) containing 0 wt% to 0.03 wt% of PS20 were loaded into a glass vial having a volume of 20 mL, and air inside the vial was purged with nitrogen. The vial was loaded into Aluminum Lamizip, and the vial was shaken overnight. The phosphate buffer was prepared by using NaH2PO4 and Na2HPO4. The mixture was filtered with a PVDF filter (Millex-GV, 0.22 µm, PVDF, 4 mm), and the solution after 10 drops of its initial flow was collected. Thus, solutions having formulations 1 to 8 were obtained. The concentrations of Compound A in the resultant solutions were calculated by the HPLC measurement of the solutions.

measured value of the concentration of Compound A ([1]; lyophilization solution used in the production of the lyophilized preparation (same formulation as formulation 32 except Compound A concentration)): 149.2 µg/mL
appearance of the reconstituted solution ([1]; lyophilized preparation dissolved in physiological saline, 5 mL): clear and free of visible particles
Final concentration of Compound A ([1]; reconstituted solution, 5 mL physiological saline, lyophilized preparation as formulation 32 except Compound A concentration): 29.9 µg/mL and 47.2 µM
Content of Compound A (%) ([1]; reconstituted solution, 5 mL physiological saline, ratio to content in lyophilization solution): 100.1%
solubility [2]: 12.4 µg/mL (≈ 19.6 µM)
SMILES: COCC(=O)N[C@@H](CC(C)C)C(=O)N[C@@H](CCSC)C(=O)Nc1ccc2c(c1)Oc1cc(N)ccc1C21OCc2ccccc21 (some centres unmarked) [Compound A]
